Series [1] has as its system MRC-5SV2 (human lung fibroblast cell line). Description: Toxicity against MRC-5SV2. It counts as cell-based. The following applies: MRC5 cells. How it is done:
(§1) ADME and toxicity for compounds were measured according to procedures outlined in the manuscript submitted in parallel to this one;2 other procedures were used for those compounds analysed by Monash University (in vitro ADME) or UCL (toxicity), both described in the main

Series [2] deals with Enterococcus faecalis ATCC 51299 (vanA-positive; vancomycin-resistant). Description: In vitro antibacterial activity, MIC (UCL), VRE. The format is cell-based. As to conditions: for MIC: read-out: VRE MIC (UCL). In a few lines:
(§2)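 Broth microdilution MIC in isosensitest broth; inoculum from overnight tryptone soya agar culture suspended in PBS to A600 0.1 (~1 × 10^8 CFU/mL), then diluted 1:100. Compounds tested as 2-fold series from 32 to 0.03 μg/mL, DMSO at most 2%; vancomycin as quality control.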

Series [3] can be described thus: Rat hepatocyte intrinsic clearance. The format is in vitro ADME. The following applies: rat hepatocytes, NEU.
From the text: (§3) To guide our initial SAR exploration work, we obtained liver microsomal intrinsic clearance data for 5 of the 18 compounds assayed by CO-ADD (Supporting Information - CDCO Report and Supporting Information - Biology). We then acquired intrinsic clearance (CLint), plasma protein binding (PPB), and solubility data on further compounds throughout the SAR campaign (Supporting Information - Biology, Tables S3 and S4).
(§4) Table S4. ADME and Pharmacokinetics: compounds only appearing in the Supplementary […]
(§5) MRSA Aqueous HLM CLint Rat Hep CLint
(§6) Cmpd MIC Solubility Human PPB (%) (µL/min/mg (µL/min/10x6 LogD7.4
(§7) (µg/mL) (µM) protein) cells)
as §1

Series [4] has as its system S. aureus ATCC 25923 (methicillin-susceptible). Put plainly: In vitro antibacterial activity, MIC (UCL), MSSA. The following applies: for MIC: Staphylococcus aureus, read-out: MSSA MIC (UCL). The format is cell-based, Staphylococcus aureus. An outline of the steps: as §2
The nature of series [5]: Human liver microsome intrinsic clearance. The format is in vitro ADME. As to conditions: human liver microsomes, NEU.
From the text: as §3, §4, §5, §6, §7, §1

In series [6] the test system is PMM (primary mouse macrophages). Description: Toxicity against PMM. The format is cell-based. As to conditions: PMM. How it is done:
as §1

The nature of another series: Aqueous solubility. The format is physicochemical. As to conditions: NEU.
From the text: To guide our initial SAR exploration work, we obtained liver microsomal intrinsic clearance data for 5 of the 18 compounds assayed by CO-ADD (Supporting Information - CDCO Report and Supporting Information - Biology). We then acquired intrinsic clearance (CLint), plasma protein binding (PPB), and solubility data on further compounds throughout the SAR campaign (Supporting Information - Biology, Tables S3 and S4). […] The more polar compounds (lower LogD) had reduced PPB and were more metabolically stable.
as §4, §5, §6, §7, §1

Series [7] deals with Staphylococcus aureus NCTC 13373 (mecA-positive; methicillin-resistant). Description: In vitro antibacterial activity, MIC (UCL School of Pharmacy assay), MRSA. The format is cell-based. The following applies: for MIC: Staphylococcus aureus, UCL, read-out: MRSA MIC (UCL). In a few lines: as §2
Series [8] is described as follows: Human plasma protein binding (PPB). It counts as in vitro ADME. As to conditions: human, plasma, human plasma, NEU; read-out: Human PPB (NEU) (converted).
From the text: as §3, §4, §5, §6, §7, §1

The next series deals with VSE. Put plainly: In vitro antibacterial activity, MIC, VSE. It counts as cell-based. The following applies: for MIC: read-out: VSE MIC (UCL).

In brackets after ≈: the same amount, converted by molar mass.

On to `CC(C)CN(c1ccc(F)cc1)c1c(-c2ccccn2)nc2ccccn12` [OSA_000983], for which the “MRC5 TC50” value in [1] stood at 54 µM. Further, the values for the MIC in series [2], in series [4] and in series [7] were 8 µg/mL (≈ 22.2 µM), 4 µg/mL (≈ 11.1 µM) and 2 µg/mL (≈ 5.55 µM), respectively. In series [3], the “Rat Hep CLint (NEU)” value was determined as 234 uL/min/10x6 cells. In [5], the “HLM CLint (NEU)” value turned out to be 58.8 uL/min/mg protein. Besides, in series [6], the “PMM TC50” value stood at 23 µM. Besides, the “Aqueous Solubility (NEU)” value in the series “Aqueous solubility” was found to be 8 µM. Besides, the fraction unbound in series [8] was 0.0042.
Turning to `Clc1ccn2c(-c3ccc4occc4c3)c(-c3ccccn3)nc2c1` [OSA_000985], the MIC in series [2] was determined as 16 µg/mL (≈ 46.3 µM); in series [4], 8 µg/mL (≈ 23.1 µM); in [7] it was 8 µg/mL (≈ 23.1 µM); in the series on VSE, 16 µg/mL (≈ 46.3 µM).
On to `Fc1cc(-c2c(-c3ccccn3)nc3ccccn23)ccn1` [OSA_000986], for which the MIC (in [2]; in series [4]; in series [7]; in the series on VSE) was greater than 32 µg/mL each time.
As for `NC(=O)c1ccc(-n2c(-c3ccccn3)nc3ccccc32)cc1` [OSA_000989], the “MRC5 TC50” value in series [1] was 64 µM. Also, the MIC (in series [2]; in series [4]; in [7]; in the series with VSE) was greater than 32 µg/mL each time. Also, the “PMM TC50” value in series [6] is 64 µM.
For `N#Cc1ccc(-n2c(-c3ccccn3)nc3ccccc32)cc1` [OSA_000990], the “MRC5 TC50” value in series [1] was determined as 64 µM. In addition, the MIC (in series [2]; in series [4]; in series [7]; in the series on VSE) was greater than 32 µg/mL in each case. Moreover, in series [6], the “PMM TC50” value was determined as 64 µM.
As to `c1ccc(-c2nc3ccccc3n2-c2ccc3occc3c2)nc1` [OSA_000991], in [1], the “MRC5 TC50” value was 64 µM. In addition, the MIC (in series [2]; in series [4]; in series [7]; in the series on VSE) was greater than 32 µg/mL in each case. Besides, the “PMM TC50” value in [6] was 38.63 µM.
As to `c1ccc(-n2c(-c3ccccn3)nc3ccccc32)cc1` [OSA_000992], the “MRC5 TC50” value in series [1] was determined as 64 µM. Moreover, the MIC (in [2]; in series [4]; in series [7]; in the series on VSE) was greater than 32 µg/mL each time. In addition, the “PMM TC50” value in [6] was found to be 64 µM.
In the case of `c1ccc(Cn2c(-c3ccccn3)nc3ccccc32)cc1` [OSA_000993], the “MRC5 TC50” value in series [1] was 64 µM. Besides, the MIC (in [2]; in [4]; in series [7]; in the series on VSE) was greater than 32 µg/mL in each case. Also, in series [6], the “PMM TC50” value was 64 µM.
Turning to `c1ccc(-c2nc3ccccc3n2-c2ccc(N3CCCCC3)cc2)nc1` [OSA_000994], the “MRC5 TC50” value in [1] worked out at 19.81 µM. The MIC in [2] turned out to be 32 µg/mL (≈ 90.3 µM); in series [4], 32 µg/mL (≈ 90.3 µM); in [7], 16 µg/mL (≈ 45.1 µM); in the series with VSE, 32 µg/mL (≈ 90.3 µM). Further, the “PMM TC50” value in series [6] worked out at 15.32 µM.
Consider `c1ccc(-c2nc3ccccc3n2-c2ccc(N3CCOCC3)cc2)nc1` [OSA_000995], for which the “MRC5 TC50” value in series [1] amounted to 64 µM. In addition, the MIC (in series [2]; in series [4]; in [7]; in the series with VSE) was greater than 32 µg/mL throughout. For the same molecule, the “PMM TC50” value in series [6] was 64 µM.
Consider `N#CCc1ccc(-n2c(-c3ccccn3)nc3ccccc32)cc1` [OSA_000996], for which, in [1], the “MRC5 TC50” value is 64 µM. The MIC in [2] was greater than 32 µg/mL; in series [4], 32 µg/mL (≈ 103 µM); in series [7] it was greater than 32 µg/mL; with VSE, greater than 32 µg/mL. Moreover, in series [6], the “PMM TC50” value came to 64 µM.
As for `Clc1ccn2c(-c3ccc4occc4c3)c(-c3ccccn3)nc2c1` [compound 985], the “VRE MIC” value in [2] is 16 µg/mL. The “MSSA MIC” value in series [4] was 8 µg/mL. Further, the “MRSA MIC” value in series [7] was 8 µg/mL. In addition, the “VSE MIC” value in the series on VSE came out at 16 µg/mL.
